Reference: patent US4197286A, “Testosterone derivatives and assay method” (Southwest Research Institute, priority 1977, dated 1980)

System: anti-testosterone serum from rabbit No. X-181
Experiment: Cross-reactivity of structurally similar steroids with the anti-testosterone serum
Type: binding
Conditions: antiserum of rabbit X-181; testosterone = 100
Description: Also, the cross-reactivity of pertinent and structurally similar steroids was determined to be as follows:

SMILES: C[C@]12CCC(=O)C[C@@H]1CC[C@@H]1[C@@H]2CC[C@]2(C)[C@@H](O)CC[C@@H]12 [5α-Dihydrotestosterone]
- % CROSS-REACTIVITY: 6.65%

SMILES: C[C@]12CCC(=O)C[C@H]1CC[C@@H]1[C@@H]2CC[C@]2(C)C(=O)CC[C@@H]12 [5β-Androstane-3,17-dione]
- % CROSS-REACTIVITY: 0.00%

SMILES: C[C@]12CC[C@@H]3c4ccc(O)cc4CC[C@H]3[C@@H]1C[C@@H](O)[C@@H]2O [Estriol]
- % CROSS-REACTIVITY: 0.00%

SMILES: C[C@]12CC[C@H]3[C@@H](CCC4=CC(=O)CC[C@@]43C)[C@@H]1CC[C@@H]2C(=O)CO [Deoxycorticosterone]
- % CROSS-REACTIVITY: 0.00%

SMILES: C[C@]12C[C@H](O)[C@H]3[C@@H](CCC4=CC(=O)CC[C@@]43C)[C@@H]1CC[C@@H]2C(=O)CO [Corticosterone]
- % CROSS-REACTIVITY: 0.00%

SMILES: C[C@]12CC[C@@H]3c4ccc(O)cc4CC[C@H]3[C@@H]1CCC2=O [Estrone]
- % CROSS-REACTIVITY: 0.00%

SMILES: C[C@]12CC[C@H]3[C@@H](C[C@H](O)C4=CC(=O)CC[C@@]43C)[C@@H]1CC[C@@H]2O [6α-Hydroxytestosterone]
- % CROSS-REACTIVITY: 0.75%

SMILES: C[C@]12CC[C@@H]3c4ccc(O)cc4CC[C@H]3[C@@H]1CC[C@@H]2O [Estradiol]
- % CROSS-REACTIVITY: 0.43%

SMILES: C[C@]12CC[C@H]3[C@@H](CCC4=CC(=O)CC[C@@]43C)[C@@H]1CC[C@@H]2O [Testosterone]
- % CROSS-REACTIVITY: 100.00%

SMILES: C[C@]12CC[C@H](O)C[C@@H]1CC[C@@H]1[C@@H]2CC[C@]2(C)C(=O)CC[C@@H]12 [Epiandrosterone]
- % CROSS-REACTIVITY: 0.19%

SMILES: C[C@]12CC(=O)[C@H]3[C@@H](CCC4=CC(=O)CC[C@@]43C)[C@@H]1CC[C@@H]2O [11β-Oxotestosterone]
- % CROSS-REACTIVITY: 1.80%

SMILES: C[C@]12CCC(=O)C[C@H]1CC[C@@H]1[C@@H]2CC[C@]2(C)[C@@H](O)CC[C@@H]12 [5β-Dihydrotestosterone]
- % CROSS-REACTIVITY: 0.63%

SMILES: CC(=O)[C@H]1CC[C@H]2[C@@H]3CCC4=CC(=O)CC[C@]4(C)[C@H]3CC[C@]12C [Progesterone]
- % CROSS-REACTIVITY: 0.00%

SMILES: C[C@]12CCC(=O)C=C1CC[C@@H]1[C@@H]2[C@@H](O)C[C@]2(C)C(=O)CC[C@@H]12 [11β-Hydroxyandrostenodione]
- % CROSS-REACTIVITY: 0.00%

SMILES: C[C@]12CC[C@H](O)CC1=CC[C@@H]1[C@@H]2CC[C@]2(C)C(=O)CC[C@@H]12 [Dehydroepiandrosterone]
- % CROSS-REACTIVITY: 0.00%

SMILES: C[C@]12CC[C@@H](O)C[C@@H]1CC[C@@H]1[C@@H]2CC[C@]2(C)[C@@H](O)CC[C@@H]12 [5α-Androstane-3α, 17β-diol]
- % CROSS-REACTIVITY: 0.00%

SMILES: C[C@]12C[C@H](O)[C@H]3[C@@H](CCC4=CC(=O)CC[C@@]43C)[C@@H]1CC[C@@H]2O [11β-Hydroxytestosterone]
- % CROSS-REACTIVITY: 0.00%

SMILES: C[C@]12CC[C@H](O)C[C@@H]1CC[C@@H]1[C@@H]2CC[C@]2(C)[C@@H](O)CC[C@@H]12 [5α-Androstane-3β,17β-diol]
- % CROSS-REACTIVITY: 2.19%

SMILES: C[C@]12CC[C@H]3[C@@H](CC=C4C[C@@H](O)CC[C@@]43C)[C@@H]1CC[C@@H]2O [5-Androstene-3β,17β-diol]
- % CROSS-REACTIVITY: 0.51%

SMILES: C[C@]12CCC(=O)C=C1CC[C@@H]1[C@@H]2CC[C@]2(C)C(=O)CC[C@@H]12 [Androstenedione]
- % CROSS-REACTIVITY: 0.90%

SMILES: C[C@]12CC[C@@H](O)C[C@@H]1CC[C@@H]1[C@@H]2CC[C@]2(C)C(=O)CC[C@@H]12 [Androsterone]
- % CROSS-REACTIVITY: 0.00%
